US20250114386A1, “COMBINATION OF A GLYCOSYLATION INHIBITOR WITH ONE CAR CELL THERAPY FOR TREATING CANCER” (OSPEDALE SAN RAFFAELE S.R.L., priority 2018, published 2025)
Entries after “also recorded” stand apart in the source; their conditions may differ.

Legend:
[1] = system: T3M4 pancreatic tumour cells; assay: Western blot / biotin-enrichment assay of protein de-glycosylation; format: cell-based
Description: […] De-glycosylation was assessed as molecular weight shift. For selective cell membrane protein analysis, biotinilation assay was performed according to manufacturer instructions (Thermo Scientific). Treatment of cell lysates with PNGase F (NEB, P0704) was performed as recommended by the manufacturer's instructions.

[2] = system: 5637, H1975 and PC9 cells; assay: In vitro co-culture killing assay, other tumour types; format: cell-based; conditions: 4 mM 2DG 48 hours before co-culture
Description: (§1) CEA or CD44v6 CAR-T cells from healthy donors were co-cultured at 1:5, 1:10, 1:25 E:T ratios with target cells in the absence of IL-7 and IL-15. T cells transduced with an irrelevant CAR (CD19 CAR T) were used as control. After 24 h or 96 h, co-cultures were analysed by FACS using Flow-Count Fluorospheres (BeckmanCoulter) and target cell killing, expressed as Elimination Index, was calculated as follows: 1−(number of residual target cells with experimental CAR-T cells/number of residual target with irrelevant CAR-T cells). In co-culture assays combining CAR-T cells with 2DG, target cells were exposed to 4 mM 2DG for 48 h before being washed, co-cultured with experimental or irrelevant CAR-T cells and analysed as above. In these experiments, the Elimination Index of 2DG alone was calculated as follows: 1−(number of target cells cultivated in medium supplemented with 2DG/number of target cells cultivated in medium alone). Co-culture of Jurkat CAR-TPR and tumour cells was performed at 1:1 E:T ratio. As control, Jurkat CAR-TPR cells were treated with either 50 ng/mL of phorbol myristate acetate (PMA) or 1 g/mL of Ionomycin or a combination of the two. Upregulation of fluorescence was assessed after 24 hours

[3] = system: PT45, BxPC3 and T3M4 pancreatic tumour cells; assay: In vitro co-culture killing assay with CEA CAR-T cells; format: cell-based
Description: as §1

[4] = system: healthy peripheral blood mononuclear cells (PBMCs); assay: Safety study on buffy coat cells (PHA-L staining, 7aad/AnnexinV); format: cell-based; conditions: 4 mM 2DG, 18 hours
Description: (§2) For dose assessment, tumour cells were exposed to 2, 4, 8, 16 or 64 mM 2DG (D8375, Sigma-Aldrich) and, after 48 h, absolute cell numbers and percentages of necrotic and proliferating cells were determined by FACS using Flow-Count Fluorospheres (BeckmanCoulter), 7-AAD and CFSE, respectively. For pharmacokinetic studies, tumour cells were treated with 4 mM 2DG and surface N-glycosylation was assessed by PHA-L staining at different time points from treatment or from wash-out to assess the kinetic of de-glycosylation and glycosylation, respectively. For safety studies, buffy coat cells were treated with 4 mM 2DG for 18 hours in the presence of IL-2 (100 IU/mL; Chiron), IL-21 (10 ng/ml; Peprotech) and IL-15 (5 ng/mL; Peprotech) before assessment of the glyco-phenotype by PHA-L staining and of cell viability by 7aad/AnnexinV staining.

[5] = 2DG alone or combined with chemotherapy and radiotherapy; cited from earlier work
[6] = system: T3M4 pancreatic tumour cells; assay: PHA-L staining of surface N-glycosylation after 2DG treatment; format: cell-based
Description: as §2
(§3) The inventors used mAbs specific for human CD44v6 (e-Bioscience), CD3, CD45, NGFR, LAG3 (BD Bioscience), HLA-DR, PD1, TIM3, (Biolegend), CD57 (Miltenyi Biotec). To determine cell vitality, 7-Aminoactinomicin D (7-AAD), AnnexinV or DAPI reagents were used. For LV transduced tumour cells, GFP expression was analysed by direct fluorescence. Samples were run through a fluorescence-activated cell sorting (FACS) Canto flow cytometer (BD Biosciences) and data were analysed with the FlowJo software (Tree Star, Inc.). For branched N-glycans expression analysis, cells were incubated with biotinylated Phaseolus vulgaris Leukoagglutinin (PHA-L; Caderlane) for 1 hour according to manufacturer's instructions, washed and incubated with PE-conjugated streptavidin and analysed by flow cytometry.

[7] = system: T3M4 and PT45 pancreatic tumour cells; assay: In vitro co-culture killing assay with CD44v6 CAR-T cells; format: cell-based
Description: as §1

[8] = system: T3M4 pancreatic adenocarcinoma xenograft; assay: In vivo efficacy, pancreatic adenocarcinoma xenograft mouse model; set-up: species or system NSG mice
Description: All experiments were approved by the Institutional Animal Care and Use Committee (IACUC) of San Raffaele University Hospital and Scientific Institute and by the Italian Governmental Health Institute (Rome, Italy). NSG mice (NOD.Cg-Prkdcscid Il2rgtm1Wj1) were obtained from the Jackson Laboratories and kept in a specific-pathogen-free (SPF) facility within individually ventilated cages. […] At day […] and 7 from tumour engraftment, when the tumour burden was high, mice were injected intraperitoneally (i.p.) with 500 mg/kg 2DG. At day 7 mice were infused intravenously (i.v.) with 5×10^5 of either CD44v6 or CD19 CAR T cells as control. In another set of experiments, mice were treated with 500 mg/kg 2DG at day 2 and 3 and received 10×10^5 of either CD44v6 or CD19 CAR T cells at day 3, when the tumour burden was low. Tumour growth was monitored by bioluminescence assay using the QUANTI-Luc detection reagent (InvivoGen) and expressed as relative light units (RLUs), according to the manufacturer instructions. Mice were sacrificed when RLUs were >10^6.

[9] = system: T3M4 pancreatic tumour cells; assay: Surface expression of beta-1 integrin and CD44v6 by FACS; format: cell-based; conditions: 4 mM 2DG, 48 hours
Description: as §3

[10] = system: T3M4 pancreatic tumour cells; assay: Tumour cell survival (7-AAD) and proliferation (CFSE) after 2DG; format: cell-based; conditions: low doses of 2DG (4 mM, 48 hours)
Description: as §2

[11] = system: human primary keratinocytes; assay: Primary keratinocytes: western blot and co-culture with CD44v6 CAR-T cells; format: cell-based
Description: as §1, with “As control, Jurkat CAR-TPR cells were treated with either 50 ng/mL of phorbol myristate acetate (PMA) or 1 g/mL of Ionomycin or a combination of the two.” left out
Tumour cells or healthy primary keratinocytes were treated with either medium alone or supplemented with 4 mM 2DG for 48 h, lysed and subjected to SDS polyacrylamide gel electrophoresys. De-glycosylation was assessed as molecular weight shift. […]

[12] = system: T3M4 pancreatic tumour cells; assay: Lactate production assay (glycolysis); format: cell-based; conditions: low doses of 2DG, 48 h
Description: Lactate production was assessed after 48 hours of 2DG treatment at the doses of 2, 4, 8, 16 or 64 mM 2DG using the Lactate-Glo assay (Promega) according to the manufacturer's instructions.

[13] = system: sulfation (PAPS formation); conditions: chlorate usually 10-30 mM; cited from earlier work
[14] = T3M4, tunicamycin 100 ng/ml, 48 h

Question: Which “inhibition of N-glycosylation (western blot, beta-1 integrin)” value ([1]; 2DG 4 mM or 16 mM, 48 hours, total cell lysates) does the source give for `O=CC[C@@H](O)[C@H](O)[C@H](O)CO` [2DG, 2-Deoxy-D-glucose] here?
Answer: The value was “molecular-weight shift of beta-1 integrin”.

Question: And the “de-glycosylated forms of beta-1 integrin and CD44v6 among surface proteins” value ([1]; biotin-enrichment western blot)?
Answer: Its value is “clearly detected among surface proteins”.

Question: What about the “elimination of highly glycosylated tumours by CD44v6 CAR-T cells after 2DG” value [2] of the same compound?
Answer: The value was “drastically increase the elimination”.

Question: What about the “cytokine release (IFNγ) by CEA CAR-T cells with 2DG-treated tumour cells” value ([3]; 24 hours after stimulation) of the same compound?
Answer: Its value is “increased”.

Question: What about the “recognition of CEAneg tumour cells by CEA CAR-T cells after 2DG pre-treatment” value ([3]; CEAneg PT45, 4 mM 2DG 48 hours) of the same compound?
Answer: The value was “did not increase recognition”.

Question: And the “elimination of CEApos tumour cells by CEA CAR-T cells after 2DG pre-treatment” value ([3]; CEApos BxPC3 and T3M4, 4 mM 2DG 48 hours)?
Answer: Its value is “significantly improved the elimination”.

Question: And the “CEA CAR-T cell activation (CD69, Jurkat TPR) with 2DG-treated tumour cells” value ([3]; T3M4, 4 mM 2DG)?
Answer: The value was “increased CAR-T cell activation”.

Question: What about the “PBMCs glycosylation (PHA-L staining)” value [4] of the same compound?
Answer: The value was “failed to interfere with PBMCs glycosylation”.

Question: What about the “viability of CD3+ T cells, CD19+ B cells, CD14+ monocytes and CD15+ granulocytes” value [4] of the same compound?
Answer: Its value is “did not impact on the viability”.

Question: What about the “safety and tolerability in patients” value [5] of the same compound?
Answer: The value was “safe and well tolerated; also recorded: good tolerability”.

Question: What about the “duration of de-glycosylation after washing out 2DG” value ([6]; 4 mM 2DG up to 48 hours, then wash-out) of the same compound?
Answer: The value was 24 h.

Question: What about the “inhibition of N-glycosylation (binding to PHA-L)” value ([6]; 4 mM 2DG, 48 hours) of the same compound?
Answer: Its value is “reduced binding to PHA-L”.

Question: What about the “time at which de-glycosylation is detectable” value ([6]; 4 mM 2DG, PHA-L staining) of the same compound?
Answer: Its value is ≤ 5 h.

Question: What about the “nature of the combined effect of 2DG and CD44v6 CAR-T cells” value ([7]; PT45 and T3M4) of the same compound?
Answer: The value was “synergic”.

Question: What about the “individual antitumor activity of 2DG alone” value ([7]; PT45 and T3M4, 4 mM 2DG 48 h) of the same compound?
Answer: The value was “lacking”.

Question: And the “elimination of tumour cells by CD44v6 CAR-T cells after 2DG pre-treatment” value ([7]; PT45 and T3M4, 4 mM 2DG 48 h before co-culture)?
Answer: The value was “significantly increasing their elimination”.

Question: And the “frequency of tumour-infiltrating CD44v6 CAR-T cells expressing exhaustion and senescence markers” value ([8]; at sacrifice, mice that received 2DG vs not)?
Answer: The value was “significantly lower frequency of cells expressing exhaustion and senescence markers”.

Question: And the “antitumor effect of 2DG alone” value ([8]; high tumor burden)?
Answer: The value was “unable to mediate any antitumor effect alone”.

Question: What about the “less tumor with 2DG in mice receiving CAR-T cells” value ([8]; high tumor burden, at 7d, p<0,05) of the same compound?
Answer: Its value is 5 fold.

Question: And the “antitumor benefit of 2DG in mice receiving CD44v6 CAR-T cells” value ([8]; high tumour burden (HTB) setting, 500 mg/kg 2DG i.p., low CAR-T cell dose)?
Answer: The value was “significantly benefited from 2DG administration”.

Question: What about the “surface expression levels of beta-1 integrin and CD44v6” value [9] of the same compound?
Answer: The value was “maintained”.

Question: And the “tumour cell proliferation (CFSE dilution)” value [10]?
Answer: Its value is “no impact”.

Question: And the “tumour cell viability (7AADpos cells)” value [10]?
Answer: The value was “no impact on tumour cell viability”.

Question: What about the “increase of keratinocyte elimination by CD44v6 CAR-T cells” value ([11]; 2DG 48 hours before co-culture) of the same compound?
Answer: Its value is “failed”.

Question: What about the keratinocyte glycosylation ([11]; 2DG 48 hours, same dose as for tumour cells) of the same compound?
Answer: Its keratinocyte glycosylation is “failed to inhibit keratinocyte glycosylation”.

Question: What about the “inhibition of glycolysis (lactate production)” value [12] of the same compound?
Answer: Its value is “unable to inhibit glycolysis”.

Question: Which inhibition of sulfation [13] does the source give for `[O-][Cl+2]([O-])O` [chlorate] here?
Answer: The inhibition of sulfation was > 90%.

Question: Which “CD44v6 CAR-T cell activation (CD69) after tunicamycin treatment of tumour cells” value [7, 14] does the source give for tunicamycin here?
Answer: The value was “confirmed”.

Question: And the “elimination of tumour cells by CD44v6 CAR-T cells after tunicamycin treatment” value [7, 14]?
Answer: Its value is “confirmed”.
